In article PMC3626250, “Effects of Borneol on Pharmacokinetics and Tissue Distribution of Notoginsenoside R1 and Ginsenosides Rg1 and Re in Panax notoginseng in Rabbits” (Journal of Analytical Methods in Chemistry, 2013):
Like-named read-outs stand apart in the source and are kept apart here. Marks after values point to notes of the source that are not given here.

Columns and labels:
[1] = Pharmacokinetics study in rabbits after oral Panax notoginseng extract with or without Borneol (plasma, SPE-HPLC-MS); format: in vivo, New Zealand rabbits; details: for Cmax / Tmax / CL/F / half-life / AUC(0-inf) / AUC(0-t): New Zealand, rabbit, plasma; for CL/F: read-out: CL/F; for half-life: read-out: t 1/2β; for AUC(0-inf) / AUC(0-t): po
Procedure: Liquid chromatography was carried out on an Agilent 1100 HPLC system with an auto sampler, a quaternary pump and a vacuum degasser (Waldoboro, Frankfurt, Germany). Operations were controlled by Agilent Chemstation 4.2 software (Littleforts, Philadelphia, USA). Separations were achieved on a reversed-phase HPLC column (Zorbax SB-C18 150 × 2.1 mm, 5.0 μm particle size). A solution of acetonitrile and water (V : V, 20 : 80) with 0.1% (V : V) ammonium formate was used as the mobile phase. The flow rate was set at 0.3 mL·min^−1 and the column temperature was 25°C. Under these conditions, NGR1, GRg1, and GRe in plasma samples were separated efficiently without any interferences.
MS^n detection was performed on an Agilent SL trap MS system (Waldoboro, Frankfurt, Germany). The ion source-dependent (electrospray ionization) conditions were the same for all analyses with a spraying voltage of −4500 V in the negative ion mode. The pressure of the nebulizing gas (nitrogen) was set at 35 p.s.i. The flow rate of the drying gas (nitrogen) was set at 7.0 L·min^−1 with the temperature of 325°C. The collision gas (He) for the MS^n mode at trap was set at flow of 4 (instrument unit). The voltage of the capillary was set at 4000 V, and its end plate offset was −500 V. Scan range was from 500 to 1500 m/z.
(§1) Frozen plasma and tissue samples were thawed in a water bath at 37°C and were then vortexed followed by centrifuging at 5000 r·min^−1 for 5 min. An aliquot of 1.0 mL of the supernatant from each sample was loaded onto C18 Bond Elute Solid phase extraction (SPE) cartridges (1000 mg, 1 cc reservoir, Varian, Harbor City, CA, USA) pretreated with 2.0 mL hexane, isopropanol, methanol, and water, sequentially. The SPE cartridges were then washed with 1.0 mL water, 20% methanol/water solution, 40% methanol/water solution, and 60% methanol/water solution, sequentially. Finally, analytes were eluted twice with 1.0 mL of 70% methanol/water solution. The eluant was evaporated to dryness under nitrogen. The residues were then reconstituted in 1.0 mL mobile phase. An aliquot of 10 μL was injected into the LC-MS system.
Eighteen rabbits were randomly divided into three groups of 6 subjects and were orally given 3.0 mL·kg^−1 normal saline, 3.0 mL·kg^−1 Panax notoginseng extract, and 3.0 mL·kg^−1 Panax notoginseng extract combined with Borneol, respectively. Plasma samples were collected in heparinized tubes from the central ear artery at 0.0, 5.0, 10.0, 20.0, 30.0, 45.0, 60.0, 75.0, 90.0, 120.0, 180.0, 300.0 and 480.0 min after dose. After each sampling, the same volume of 0.9% saline solution was injected from the ear vein to compensate the loss of blood. The plasma obtained was frozen at −70°C for storage and was processed prior to analysis with the proposed method as described in Section 2.6.
Statistical analysis of the biological data was performed using the Student's t-test. The drug analysis system 2.0 (DAS 2.0, T.C.M., Shanghai, China) was used to calculate the pharmacokinetic parameters, such as the area under curve (AUC), the maximum plasma concentration (C max), the time needed to reach the maximum plasma concentration (t max) and the half-life of absorption, and distribution and elimination (t 1/2Ka, t 1/2α, t 1/2β).

[2] = Tissue distribution study in rabbits after oral Panax notoginseng extract with or without Borneol; format: in vivo, New Zealand rabbits; details: New Zealand, rabbit; for Kp at 1 h: oral, Borneol combined with Panax notoginseng; for concentration at 0.5 h / concentration at 1 h / concentration at 3 h: po; for concentration at 3 h: 3 mL·kg^−1, 3.0 h
Procedure: as §1
One group of rabbits (n = 18) was orally administered a dose of 3.0 mL·kg^−1 Panax notoginseng extract, while another group of rabbits (n = 18) was orally given 3.0 mL·kg^−1 Panax notoginseng extract combined with Borneol. At 0.5, 1, and 3 h after administration, blood samples were collected from the central ear artery of six rabbits from each group, and the heart, liver, lung, kidney, and brain were immediately removed after animals were sacrificed by decapitation. An accurately weighed amount of tissue (1 g) was collected to be rinsed, dried, minced, and homogenized (400 r·min^−1) in normal saline (1.5 mL). All of the samples were stored at −70°C and were processed prior to analysis with the proposed method as described in Section 2.6.

[3] = oral 3.0 mL·kg^−1 Panax notoginseng extract
[4] = oral 3.0 mL·kg^−1 Panax notoginseng extract combined with Borneol

With `CC(C)=CCC[C@](C)(O[C@@H]1O[C@H](CO)[C@@H](O)[C@H](O)[C@H]1O)[C@H]1CC[C@]2(C)[C@@H]1[C@H](O)C[C@@H]1[C@@]3(C)CC[C@H](O)C(C)(C)[C@@H]3[C@@H](O[C@@H]3O[C@H](CO)[C@@H](O)[C@H](O)[C@H]3O)C[C@]12C` [GRg1, ginsenoside Rg1] the Cmax [1, 3] was 2360 ± 150 ng/mL, the Tmax [1, 3] was 30 min and the Cmax [1, 4] was 2870 ± 340 ng/mL. It also gave a Tmax [1, 4] of 30 min, a CL/F [1, 4] of 119 ± 40 mL/min/kg and a half-life [1, 4] of 69.3 ± 10.7 min. For the same compound, the CL/F [1, 3] was 123 ± 67 mL/min/kg, the half-life [1, 3] was 69.3 ± 12 min and the AUC(0-inf) [1, 3] was 10900 ng·h/mL. It also gave an AUC(0-t) [1, 3] of 8250 ng·h/mL, an AUC(0-inf) [1, 4] of 27900 ng·h/mL and an AUC(0-t) [1, 4] of 9090 ng·h/mL. The “K 10” value [1, 3] was 0.005 ± 0.001 min⁻¹, the “K 12” value [1, 3] was 0.011 ± 0.003 min⁻¹ and the “K 21” value [1, 3] was 0.012 ± 0.003 min⁻¹. The K a [1, 3] was 0.039 ± 0.004 min⁻¹, the T lag [1, 3] was 0 ± 0 min and the V/F [1, 3] was 24.5 ± 4.5 L/kg. For the same compound, the “t 1/2Ka” value [1, 3] was 17.8 ± 2.4 min, the “t 1/2α” value [1, 3] was 38.5 ± 2.5 min and the α [1, 3] was 0.018 ± 0.005 min⁻¹. For the same compound, the β [1, 3] was 0.010 ± 0.007 min⁻¹, the “K 10” value [1, 4] was 0.003 ± 0.00 min⁻¹ and the “K 12” value [1, 4] was 0.025 ± 0.005** min^−1. The “K 21” value [1, 4] was 0.013 ± 0.001 min⁻¹, the K a [1, 4] was 0.051 ± 0.010* min^−1 and the T lag [1, 4] was 1.25 ± 0.34 min. For the same compound, the V/F [1, 4] was 35.9 ± 8.7 L/kg, the “t 1/2Ka” value [1, 4] was 13.5 ± 4.6 min and the “t 1/2α” value [1, 4] was 22.3 ± 3.1 min. For the same compound, the α [1, 4] was 0.031 ± 0.011 min⁻¹, the β [1, 4] was 0.010 ± 0.001 min⁻¹ and the Kp at 1 h ([2]; brain, peak levels at 1.0 h, read-out: level in brain, fold higher than the plasma concentrations) was 11.8. It also gave a concentration at 0.5 h ([2]; brain, 3 mL·kg^−1, 0.5 h, oral Panax notoginseng with Borneol, read-out: Concentration in brain) of 20600 ± 1360 ng/g, a concentration at 0.5 h ([2]; brain, 3 mL·kg^−1, 0.5 h, oral Panax notoginseng, read-out: Concentration in brain) of 750 ± 110 ng/g and a concentration at 1 h ([2]; brain, 3 mL·kg^−1, 1.0 h, oral Panax notoginseng, read-out: Concentration in brain) of 910 ± 890 ng/g. The concentration at 3 h ([2]; brain, oral Panax notoginseng with Borneol, read-out: Concentration in brain) was 17900 ± 2600 ng/g, the concentration at 3 h ([2]; brain, oral Panax notoginseng, read-out: Concentration in brain) was 570 ± 200 ng/g and the concentration at 1 h ([2]; brain, 1.0 h, oral Panax notoginseng with Borneol, read-out: Concentration in brain) was 25700 ± 2690 ng/g. The Kp at 1 h ([2]; heart, peak levels at 1.0 h, read-out: level in heart, fold higher than the plasma concentrations) was 12.4, the concentration at 0.5 h ([2]; heart, 3 mL·kg^−1, 0.5 h, oral Panax notoginseng with Borneol, read-out: Concentration in heart) was 22600 ± 360 ng/g and the concentration at 0.5 h ([2]; heart, 3 mL·kg^−1, 0.5 h, oral Panax notoginseng, read-out: Concentration in heart) was 2210 ± 760 ng/g. For the same compound, the concentration at 1 h ([2]; heart, 3 mL·kg^−1, 1.0 h, oral Panax notoginseng, read-out: Concentration in heart) was 2940 ± 240 ng/g, the concentration at 3 h ([2]; heart, oral Panax notoginseng with Borneol, read-out: Concentration in heart) was 19100 ± 1160 ng/g and the concentration at 3 h ([2]; heart, oral Panax notoginseng, read-out: Concentration in heart) was 1530 ± 450 ng/g. The concentration at 1 h ([2]; heart, 1.0 h, oral Panax notoginseng with Borneol, read-out: Concentration in heart) was 27000 ± 310 ng/g, the Kp at 1 h ([2]; kidney, at 1.0 h, read-out: level in kidney, fold higher than the plasma concentrations) was 7.77 and the concentration at 0.5 h ([2]; kidney, 3 mL·kg^−1, 0.5 h, oral Panax notoginseng with Borneol, read-out: Concentration in kidney) was 27540 ± 170 ng/g. It also gave a concentration at 0.5 h ([2]; kidney, 3 mL·kg^−1, 0.5 h, oral Panax notoginseng, read-out: Concentration in kidney) of 4050 ± 260 ng/g, a concentration at 1 h ([2]; kidney, 3 mL·kg^−1, 1.0 h, oral Panax notoginseng, read-out: Concentration in kidney) of 3670 ± 380 ng/g and a concentration at 3 h ([2]; kidney, oral Panax notoginseng with Borneol, read-out: Concentration in kidney) of 10200 ± 2770 ng/g. For the same compound, the concentration at 3 h ([2]; kidney, oral Panax notoginseng, read-out: Concentration in kidney) was 3030 ± 230 ng/g, the concentration at 1 h ([2]; kidney, 1.0 h, oral Panax notoginseng with Borneol, read-out: Concentration in kidney) was 16900 ± 810 ng/g and the Kp at 1 h ([2]; liver, peak levels at 1.0 h, read-out: level in liver, fold higher than the plasma concentrations) was 27.1. For the same compound, the concentration at 0.5 h ([2]; liver, 3 mL·kg^−1, 0.5 h, oral Panax notoginseng with Borneol, read-out: Concentration in liver) was 50100 ± 1950 ng/g, the concentration at 0.5 h ([2]; liver, 3 mL·kg^−1, 0.5 h, oral Panax notoginseng, read-out: Concentration in liver) was 8480 ± 530 ng/g and the concentration at 1 h ([2]; liver, 3 mL·kg^−1, 1.0 h, oral Panax notoginseng, read-out: Concentration in liver) was 8850 ± 510 ng/g. It also gave a concentration at 3 h ([2]; liver, oral Panax notoginseng with Borneol, read-out: Concentration in liver) of 37800 ± 3430 ng/g, a concentration at 3 h ([2]; liver, oral Panax notoginseng, read-out: Concentration in liver) of 6180 ± 590 ng/g and a concentration at 1 h ([2]; liver, 1.0 h, oral Panax notoginseng with Borneol, read-out: Concentration in liver) of 59000 ± 3740 ng/g. It also gave a Kp at 1 h ([2]; lung, peak levels at 1.0 h, read-out: level in lung, fold higher than the plasma concentrations) of 8.17, a concentration at 0.5 h ([2]; lung, 3 mL·kg^−1, 0.5 h, oral Panax notoginseng with Borneol, read-out: Concentration in lung) of 15100 ± 3240 ng/g and a concentration at 0.5 h ([2]; lung, 3 mL·kg^−1, 0.5 h, oral Panax notoginseng, read-out: Concentration in lung) of 14300 ± 430 ng/g. For the same compound, the concentration at 1 h ([2]; lung, 3 mL·kg^−1, 1.0 h, oral Panax notoginseng, read-out: Concentration in lung) was 15300 ± 640 ng/g, the concentration at 3 h ([2]; lung, oral Panax notoginseng with Borneol, read-out: Concentration in lung) was 12300 ± 1460 ng/g and the concentration at 3 h ([2]; lung, oral Panax notoginseng, read-out: Concentration in lung) was 11900 ± 710 ng/g. The concentration at 1 h ([2]; lung, 1.0 h, oral Panax notoginseng with Borneol, read-out: Concentration in lung) was 17800 ± 1250 ng/g, the concentration at 0.5 h ([2]; plasma, 3 mL·kg^−1, 0.5 h, oral Panax notoginseng, read-out: Concentration in plasma) was 1970 ± 160 ng/mL and the concentration at 1 h ([2]; plasma, 3 mL·kg^−1, 1.0 h, oral Panax notoginseng, read-out: Concentration in plasma) was 1990 ± 60 ng/mL. It also gave a concentration at 3 h ([2]; plasma, oral Panax notoginseng with Borneol, read-out: Concentration in plasma) of 920 ± 10 ng/mL, a concentration at 3 h ([2]; plasma, oral Panax notoginseng, read-out: Concentration in plasma) of 980 ± 10 ng/mL and a concentration at 0.5 h ([2]; plasma, 0.5 h, oral Panax notoginseng with Borneol, read-out: Concentration in plasma) of 2870 ± 60 ng/mL. It also gave a concentration at 1 h ([2]; plasma, 1.0 h, oral Panax notoginseng with Borneol, read-out: Concentration in plasma) of 2180 ± 90 ng/mL.
